Data reported in ChEMBL document CHEMBL1614629, “Extrapolation of human pharmacokinetic parameters from rat, dog, and monkey data: Molecular properties associated with extrapolative success or failure” (J Pharm Sci, 2005).

What was measured:
[1] = Clearance in dog after iv administration; assay type: ADME, organism-based, Canis lupus familiaris; settings: in vivo
[2] = Volume of distribution at steady state in monkey after iv administration; assay type: ADME, organism-based; settings: macaca, in vivo, read-out: Vdss
[3] = Volume of distribution at steady state in dog after iv administration; assay type: ADME, organism-based, Canis lupus familiaris; settings: in vivo, read-out: Vdss
[4] = Volume of distribution at steady state in human after iv administration; assay type: ADME, organism-based; settings: in vivo; for Vd: read-out: Vdss
[5] = Clearance in rat after iv administration; assay type: ADME, organism-based; settings: in vivo
[6] = Clearance in human after iv administration; assay type: ADME, organism-based; settings: in vivo
[7] = Volume of distribution at steady state in rat after iv administration; assay type: ADME, organism-based; settings: in vivo
[8] = Clearance in monkey after iv administration; assay type: ADME, organism-based; settings: macaca, in vivo

Row | Structure (SMILES) | clearance [1] [mL/min/kg] | Vd [2] [L/kg] | Vd [3] [L/kg] | Vd [4] [L/kg] | clearance [5] [mL/min/kg] | clearance [6] [mL/min/kg] | Vdss [7] [L/kg] | clearance [8] [mL/min/kg] | Vdss [4] [L/kg]
1 | O=C1CN=C(c2ccccc2Cl)c2cc([N+](=O)[O-])ccc2N1 [CLONAZEPAM] | 11 | 6.8 | 1.6 | 5.5 | 21 | 1.6 | 3 | 14 | 
2 | CC[C@]1(O)C[C@H]2CN(CCc3c([nH]c4ccccc34)[C@@](C(=O)OC)(c3cc4c(cc3OC)N(C=O)[C@H]3[C@@](O)(C(=O)OC)[C@H](OC(C)=O)[C@]5(CC)C=CCN6CC[C@]43[C@@H]65)C2)C1 [VINCRISTINE] | 9.8 | 1.3 | 3.1 | 8 | 2 | 1.8 | 0.41 | 4.8 | 
3 | CN(C)C(=O)CCSC(SCCC(=O)O)c1cccc(/C=C/c2ccc3ccc(Cl)cc3n2)c1 (configuration not stated) [MK-571] | 4 | 0.32 | 0.23 | 0.09 | 37 | 0.92 | 0.59 | 1.9 | 
4 | O=[N+]([O-])O[C@H]1CO[C@H]2[C@@H]1OC[C@H]2O[N+](=O)[O-] [ISOSORBIDE DINITRATE] | 180 | 1.7 | 3 |  | 118 | 3.6 | 4.9 | 59 | 0.05
5 | Cc1c(C)c2c(c(C)c1O)CCC(C)(COc1ccc(CC3SC(=O)NC3=O)cc1)O2 (configuration not stated) [TROGLITAZONE] | 6.6 | 0.71 | 0.77 | 0.71 | 22 | 3.5 | 1 | 8.3 | 
6 | NCC1(CC(=O)O)CCCCC1 [GABAPENTIN] | 2.3 | 0.68 | 0.16 | 0.82 | 9.5 | 1.8 | 1.2 | 2.6 | 
7 | CCCC(CCC)C(=O)O [VALPROIC ACID] | 3 | 0.15 | 0.31 | 0.15 | 4.2 | 0.11 | 0.66 | 4 | 
8 | CN1C(=O)OC(C)(C)C1=O [TRIMETHADIONE] | 2.9 | 0.66 | 0.63 | 0.61 | 5.7 | 0.7 | 0.66 | 1.6 | 
9 | CO/N=C(\C(=O)N[C@@H]1C(=O)N2C(C(=O)O)=C(CSc3nc(=O)c(=O)[nH]n3C)CS[C@H]12)c1csc(N)n1 [CEFTRIAXONE] | 4 | 0.11 | 0.24 | 0.16 | 4 | 0.24 | 0.18 | 0.45 | 
10 | CCOC(=O)C1(c2ccccc2)CCN(C)CC1 [MEPERIDINE] | 43 | 5.9 | 2.4 | 4.4 | 253 | 17 | 24 | 1 | 
11 | CC[C@H]1OC(=O)[C@H](C)[C@@H](O[C@H]2C[C@@](C)(OC)[C@@H](O)[C@H](C)O2)[C@H](C)[C@@H](O[C@@H]2O[C@H](C)C[C@H](N(C)C)[C@H]2O)[C@](C)(O)C[C@@H](C)C(=O)[C@H](C)[C@@H](O)[C@]1(C)O [ERYTHROMYCIN] | 21 | 0.93 | 2.7 | 0.89 | 73 | 7 | 9.3 | 14 | 
12 | C#C[C@]1(O)CC[C@H]2[C@@H]3CCc4cc(O)ccc4[C@H]3[C@@H](OC)C[C@@]21C [MOXESTROL] | 5.2 | 1.8 | 0.63 | 0.24 | 52 | 0.34 | 1.4 | 3.2 | 
13 | Cc1cccc(C)c1NC(=O)NCCCNC(C)C | 13 | 3.8 | 1.2 | 1.4 | 82 | 7.2 | 3.2 | 32 | 
14 | CCC1(C)CC(=O)NC1=O (configuration not stated) [ETHOSUXIMIDE] | 0.42 | 0.82 | 0.59 | 0.63 | 3.1 | 0.15 | 0.68 | 0.33 | 
15 | CO[C@@]1(NC(=O)C(C(=O)[O-])c2ccc(O)cc2)C(=O)N2C(C(=O)[O-])=C(CSc3nnnn3C)CO[C@@H]21.[Na+].[Na+] (some centres not stated) [MOXALACTAM DISODIUM] | 2.2 | 0.16 | 0.2 | 0.27 | 9.4 | 1.2 | 0.28 | 2 | 
16 | Cc1cccnc1NS(=O)(=O)c1ccc(C#Cc2ccc(O)c(C(=O)O)c2)cc1 [SUSALIMOD] | 20 | 0.08 | 0.19 | 0.12 | 62 | 0.09 | 1.2 | 2 | 
17 | C#C[C@]1(O)CC[C@H]2[C@@H]3CCc4cc(O)ccc4[C@H]3CC[C@@]21C [ETHINYL ESTRADIOL] | 25 | 6 | 17 | 18 | 64 | 5 | 73 | 17 | 
18 | Cc1cc(O)c(C(=O)N[C@@H](C(=O)N[C@@H]2C(=O)N3C(C(=O)O)=C(CSc4nnnn4C)CS[C@H]23)c2ccc(O)cc2)cn1 [CEFPIRAMIDE] | 5.1 | 0.1 | 0.45 | 0.11 | 9.5 | 0.28 | 0.26 | 0.52 | 
19 | C#CCCCC(=O)c1cc(C(C)(C)C)c(O)c(C(C)(C)C)c1 [TEBUFELONE] | 32 | 53 | 81 | 30 | 42 | 9.9 | 10 | 17 | 
